From the kinase profiling compilation of Christmann-Franck et al. (2016)

Target: NEK9 (human) (UniProt Q8TD19)
Assay: radiometric filter-binding kinase assay, Kinase HotSpot
Conditions: compound 0.5 µM; ATP 10 µM

Going from CSc1nc(-c2ccc(F)cc2)c(-c2ccnc(NC(C)c3ccccc3)c2)[nH]1 (centres undefined) to Nc1n[nH]c2nnc(-c3c(-c4ccccc4)nn4ccccc34)cc12, the residual activity rises from 89.4% to 93.4%.

Going from O=C(NC(NC(=S)Nc1ccc(F)c([N+](=O)[O-])c1)C(Cl)(Cl)Cl)C(c1ccccc1)c1ccccc1 (centres undefined) to Cc1cc2ncc(-c3ccccc3)nc2cc1C, the residual activity falls from 110% to 93.1%.

Target: PTK2B (human) (UniProt Q14289)
Assay: as above
Conditions: compound 0.5 µM; ATP 10 µM

Compared with CSc1nc(-c2ccc(F)cc2)c(-c2ccnc(NC(C)c3ccccc3)c2)[nH]1 (centres undefined), Nc1n[nH]c2nnc(-c3c(-c4ccccc4)nn4ccccc34)cc12 is lower in residual activity: 100% for the first, 95.4% for the second.

First: O=C(NC(NC(=S)Nc1ccc(F)c([N+](=O)[O-])c1)C(Cl)(Cl)Cl)C(c1ccccc1)c1ccccc1 (centres undefined)
Second: Cc1cc2ncc(-c3ccccc3)nc2cc1C
The residual activity of the first is higher: 102% for the first, 92.1% for the second.

Target: ROCK1 (human) (UniProt Q13464)
Assay: as above
Conditions: compound 0.5 µM; ATP 10 µM

First: CSc1nc(-c2ccc(F)cc2)c(-c2ccnc(NC(C)c3ccccc3)c2)[nH]1 (centres undefined)
Second: Nc1n[nH]c2nnc(-c3c(-c4ccccc4)nn4ccccc34)cc12
The residual activity of the first is lower: 91.7% for the first, 100% for the second.

First: O=C(NC(NC(=S)Nc1ccc(F)c([N+](=O)[O-])c1)C(Cl)(Cl)Cl)C(c1ccccc1)c1ccccc1 (centres undefined)
Second: Cc1cc2ncc(-c3ccccc3)nc2cc1C
The residual activity of the first is lower: 99.8% for the first, 100% for the second.

Target: MAP3K2 (human) (UniProt Q9Y2U5)
Assay: as above
Conditions: compound 0.5 µM; ATP 10 µM

Compared with CSc1nc(-c2ccc(F)cc2)c(-c2ccnc(NC(C)c3ccccc3)c2)[nH]1 (centres undefined), Nc1n[nH]c2nnc(-c3c(-c4ccccc4)nn4ccccc34)cc12 is lower in residual activity: 101% for the first, 97.8% for the second.

First: O=C(NC(NC(=S)Nc1ccc(F)c([N+](=O)[O-])c1)C(Cl)(Cl)Cl)C(c1ccccc1)c1ccccc1 (centres undefined)
Second: Cc1cc2ncc(-c3ccccc3)nc2cc1C
The residual activity of the first is lower: 96.8% for the first, 105% for the second.

Target: MERTK (human) (UniProt Q12866)
Assay: as above
Conditions: compound 0.5 µM; ATP 10 µM

First: CSc1nc(-c2ccc(F)cc2)c(-c2ccnc(NC(C)c3ccccc3)c2)[nH]1 (centres undefined)
Second: Nc1n[nH]c2nnc(-c3c(-c4ccccc4)nn4ccccc34)cc12
The residual activity of the first is higher: 93.1% for the first, 76.4% for the second.

First: O=C(NC(NC(=S)Nc1ccc(F)c([N+](=O)[O-])c1)C(Cl)(Cl)Cl)C(c1ccccc1)c1ccccc1 (centres undefined)
Second: Cc1cc2ncc(-c3ccccc3)nc2cc1C
The residual activity of the first is higher: 96.2% for the first, 81.4% for the second.

Target: WNK3 (human) (UniProt Q9BYP7)
Assay: as above
Conditions: compound 0.5 µM; ATP 10 µM

First: CSc1nc(-c2ccc(F)cc2)c(-c2ccnc(NC(C)c3ccccc3)c2)[nH]1 (centres undefined)
Second: Nc1n[nH]c2nnc(-c3c(-c4ccccc4)nn4ccccc34)cc12
The residual activity of the first is lower: 97.6% for the first, 101% for the second.

Compared with O=C(NC(NC(=S)Nc1ccc(F)c([N+](=O)[O-])c1)C(Cl)(Cl)Cl)C(c1ccccc1)c1ccccc1 (centres undefined), Cc1cc2ncc(-c3ccccc3)nc2cc1C is lower in residual activity: 108% for the first, 103% for the second.

Target: PHKG2 (human) (UniProt P15735)
Sequence (P15735 whole entry, looked up): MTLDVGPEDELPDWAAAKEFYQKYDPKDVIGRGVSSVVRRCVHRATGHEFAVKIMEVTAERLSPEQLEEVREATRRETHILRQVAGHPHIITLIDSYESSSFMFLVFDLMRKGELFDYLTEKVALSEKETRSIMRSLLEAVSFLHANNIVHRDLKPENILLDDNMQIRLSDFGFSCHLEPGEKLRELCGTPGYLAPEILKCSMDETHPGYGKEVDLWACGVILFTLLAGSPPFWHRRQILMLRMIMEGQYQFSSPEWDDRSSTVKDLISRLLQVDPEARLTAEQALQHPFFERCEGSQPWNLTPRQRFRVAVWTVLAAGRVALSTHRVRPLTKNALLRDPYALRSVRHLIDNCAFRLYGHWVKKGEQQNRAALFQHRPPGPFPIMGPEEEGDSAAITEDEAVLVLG
Assay: as above
Conditions: compound 0.5 µM; ATP 10 µM

Compared with CSc1nc(-c2ccc(F)cc2)c(-c2ccnc(NC(C)c3ccccc3)c2)[nH]1 (centres undefined), Nc1n[nH]c2nnc(-c3c(-c4ccccc4)nn4ccccc34)cc12 is lower in residual activity: 125% for the first, 82.6% for the second.

Compared with O=C(NC(NC(=S)Nc1ccc(F)c([N+](=O)[O-])c1)C(Cl)(Cl)Cl)C(c1ccccc1)c1ccccc1 (centres undefined), Cc1cc2ncc(-c3ccccc3)nc2cc1C is lower in residual activity: 109% for the first, 83.9% for the second.

Target: CAMK1 (human) (UniProt Q14012)
Assay: as above
Conditions: compound 0.5 µM; ATP 10 µM

First: CSc1nc(-c2ccc(F)cc2)c(-c2ccnc(NC(C)c3ccccc3)c2)[nH]1 (centres undefined)
Second: Nc1n[nH]c2nnc(-c3c(-c4ccccc4)nn4ccccc34)cc12
The residual activity of the first is lower: 96.2% for the first, 102% for the second.

Going from O=C(NC(NC(=S)Nc1ccc(F)c([N+](=O)[O-])c1)C(Cl)(Cl)Cl)C(c1ccccc1)c1ccccc1 (centres undefined) to Cc1cc2ncc(-c3ccccc3)nc2cc1C, the residual activity rises from 93.1% to 96.2%.

Target: SGK3 (human) (UniProt Q96BR1)
Sequence (Q96BR1 whole entry, looked up): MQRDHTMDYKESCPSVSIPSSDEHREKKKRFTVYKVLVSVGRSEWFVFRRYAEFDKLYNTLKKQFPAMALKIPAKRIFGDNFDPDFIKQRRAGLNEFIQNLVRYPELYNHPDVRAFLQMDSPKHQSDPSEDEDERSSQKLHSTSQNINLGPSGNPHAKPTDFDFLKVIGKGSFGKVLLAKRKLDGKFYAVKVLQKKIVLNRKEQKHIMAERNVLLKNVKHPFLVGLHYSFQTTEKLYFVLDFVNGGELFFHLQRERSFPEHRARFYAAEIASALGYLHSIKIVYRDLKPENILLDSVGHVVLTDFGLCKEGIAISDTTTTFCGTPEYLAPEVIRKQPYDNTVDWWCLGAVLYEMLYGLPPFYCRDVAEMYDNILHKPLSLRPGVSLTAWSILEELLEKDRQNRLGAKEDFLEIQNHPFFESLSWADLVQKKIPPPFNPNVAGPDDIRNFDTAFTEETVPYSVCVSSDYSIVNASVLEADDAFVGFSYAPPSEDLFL
Assay: as above
Conditions: compound 0.5 µM; ATP 10 µM

First: CSc1nc(-c2ccc(F)cc2)c(-c2ccnc(NC(C)c3ccccc3)c2)[nH]1 (centres undefined)
Second: Nc1n[nH]c2nnc(-c3c(-c4ccccc4)nn4ccccc34)cc12
The residual activity of the first is higher: 103% for the first, 90.2% for the second.

Going from O=C(NC(NC(=S)Nc1ccc(F)c([N+](=O)[O-])c1)C(Cl)(Cl)Cl)C(c1ccccc1)c1ccccc1 (centres undefined) to Cc1cc2ncc(-c3ccccc3)nc2cc1C, the residual activity rises from 85.8% to 101%.

Target: JAK3 JH1 JH2 (human) (UniProt P52333)
Assay: as above
Conditions: compound 0.5 µM; ATP 10 µM

Compared with CSc1nc(-c2ccc(F)cc2)c(-c2ccnc(NC(C)c3ccccc3)c2)[nH]1 (centres undefined), Nc1n[nH]c2nnc(-c3c(-c4ccccc4)nn4ccccc34)cc12 is higher in residual activity: 98.5% for the first, 105% for the second.

First: O=C(NC(NC(=S)Nc1ccc(F)c([N+](=O)[O-])c1)C(Cl)(Cl)Cl)C(c1ccccc1)c1ccccc1 (centres undefined)
Second: Cc1cc2ncc(-c3ccccc3)nc2cc1C
The residual activity of the first is higher: 110% for the first, 101% for the second.

Target: PTK6 (human) (UniProt Q13882)
Assay: as above
Conditions: compound 0.5 µM; ATP 10 µM

Going from CSc1nc(-c2ccc(F)cc2)c(-c2ccnc(NC(C)c3ccccc3)c2)[nH]1 (centres undefined) to Nc1n[nH]c2nnc(-c3c(-c4ccccc4)nn4ccccc34)cc12, the residual activity falls from 96.8% to 90.8%.

Going from O=C(NC(NC(=S)Nc1ccc(F)c([N+](=O)[O-])c1)C(Cl)(Cl)Cl)C(c1ccccc1)c1ccccc1 (centres undefined) to Cc1cc2ncc(-c3ccccc3)nc2cc1C, the residual activity rises from 87.8% to 93.6%.

Target: AKT3 (human) (UniProt Q9Y243)
Assay: as above
Conditions: compound 0.5 µM; ATP 10 µM

Going from CSc1nc(-c2ccc(F)cc2)c(-c2ccnc(NC(C)c3ccccc3)c2)[nH]1 (centres undefined) to Nc1n[nH]c2nnc(-c3c(-c4ccccc4)nn4ccccc34)cc12, the residual activity rises from 91.5% to 97.5%.

Compared with O=C(NC(NC(=S)Nc1ccc(F)c([N+](=O)[O-])c1)C(Cl)(Cl)Cl)C(c1ccccc1)c1ccccc1 (centres undefined), Cc1cc2ncc(-c3ccccc3)nc2cc1C is lower in residual activity: 106% for the first, 91.8% for the second.

Target: CAMKK2 (human) (UniProt Q96RR4)
Assay: as above
Conditions: compound 0.5 µM; ATP 10 µM

Going from CSc1nc(-c2ccc(F)cc2)c(-c2ccnc(NC(C)c3ccccc3)c2)[nH]1 (centres undefined) to Nc1n[nH]c2nnc(-c3c(-c4ccccc4)nn4ccccc34)cc12, the residual activity rises from 84% to 101%.

Going from O=C(NC(NC(=S)Nc1ccc(F)c([N+](=O)[O-])c1)C(Cl)(Cl)Cl)C(c1ccccc1)c1ccccc1 (centres undefined) to Cc1cc2ncc(-c3ccccc3)nc2cc1C, the residual activity falls from 126% to 91.8%.

Target: ACVR1B (human) (UniProt P36896)
Sequence (P36896 whole entry, looked up): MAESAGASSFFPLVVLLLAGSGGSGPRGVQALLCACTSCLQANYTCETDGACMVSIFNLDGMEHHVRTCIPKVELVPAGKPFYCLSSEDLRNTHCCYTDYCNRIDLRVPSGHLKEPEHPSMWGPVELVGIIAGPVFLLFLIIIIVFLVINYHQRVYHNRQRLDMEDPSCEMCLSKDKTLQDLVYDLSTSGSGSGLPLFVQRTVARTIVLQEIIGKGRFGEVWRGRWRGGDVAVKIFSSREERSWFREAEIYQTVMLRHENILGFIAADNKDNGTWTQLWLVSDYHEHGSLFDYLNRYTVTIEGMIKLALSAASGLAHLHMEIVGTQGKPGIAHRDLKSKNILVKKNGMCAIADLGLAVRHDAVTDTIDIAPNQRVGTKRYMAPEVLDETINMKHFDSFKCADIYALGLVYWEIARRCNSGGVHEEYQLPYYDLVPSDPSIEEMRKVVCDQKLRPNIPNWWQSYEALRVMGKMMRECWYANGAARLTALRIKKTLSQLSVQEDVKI
Assay: as above
Conditions: compound 0.5 µM; ATP 10 µM

Going from CSc1nc(-c2ccc(F)cc2)c(-c2ccnc(NC(C)c3ccccc3)c2)[nH]1 (centres undefined) to Nc1n[nH]c2nnc(-c3c(-c4ccccc4)nn4ccccc34)cc12, the residual activity rises from 95.9% to 107%.

First: O=C(NC(NC(=S)Nc1ccc(F)c([N+](=O)[O-])c1)C(Cl)(Cl)Cl)C(c1ccccc1)c1ccccc1 (centres undefined)
Second: Cc1cc2ncc(-c3ccccc3)nc2cc1C
The residual activity of the first is higher: 106% for the first, 97.7% for the second.

Target: DYRK3 (human) (UniProt O43781)
Sequence (O43781 whole entry, looked up): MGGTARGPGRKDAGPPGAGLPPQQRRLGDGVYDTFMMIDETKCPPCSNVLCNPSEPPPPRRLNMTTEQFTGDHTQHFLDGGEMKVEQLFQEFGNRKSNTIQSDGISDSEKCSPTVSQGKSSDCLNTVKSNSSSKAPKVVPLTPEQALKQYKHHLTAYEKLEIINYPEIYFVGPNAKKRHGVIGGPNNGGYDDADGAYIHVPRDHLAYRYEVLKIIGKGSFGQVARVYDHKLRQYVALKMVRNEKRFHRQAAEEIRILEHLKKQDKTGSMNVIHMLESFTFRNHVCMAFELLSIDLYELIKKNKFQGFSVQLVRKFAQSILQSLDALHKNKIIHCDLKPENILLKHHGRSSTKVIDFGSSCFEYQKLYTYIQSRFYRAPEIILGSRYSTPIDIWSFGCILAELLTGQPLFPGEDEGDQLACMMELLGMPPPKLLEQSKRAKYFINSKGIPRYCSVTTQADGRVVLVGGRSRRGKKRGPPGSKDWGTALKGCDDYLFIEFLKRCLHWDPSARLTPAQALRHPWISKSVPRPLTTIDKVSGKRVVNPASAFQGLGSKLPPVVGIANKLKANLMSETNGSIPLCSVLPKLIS
Assay: as above
Conditions: compound 0.5 µM; ATP 10 µM

First: CSc1nc(-c2ccc(F)cc2)c(-c2ccnc(NC(C)c3ccccc3)c2)[nH]1 (centres undefined)
Second: Nc1n[nH]c2nnc(-c3c(-c4ccccc4)nn4ccccc34)cc12
The residual activity of the first is lower: 94.2% for the first, 99.8% for the second.

First: O=C(NC(NC(=S)Nc1ccc(F)c([N+](=O)[O-])c1)C(Cl)(Cl)Cl)C(c1ccccc1)c1ccccc1 (centres undefined)
Second: Cc1cc2ncc(-c3ccccc3)nc2cc1C
The residual activity of the first is higher: 100% for the first, 89.2% for the second.

Target: ERBB2 (human) (UniProt P04626)
Sequence (P04626 whole entry, looked up): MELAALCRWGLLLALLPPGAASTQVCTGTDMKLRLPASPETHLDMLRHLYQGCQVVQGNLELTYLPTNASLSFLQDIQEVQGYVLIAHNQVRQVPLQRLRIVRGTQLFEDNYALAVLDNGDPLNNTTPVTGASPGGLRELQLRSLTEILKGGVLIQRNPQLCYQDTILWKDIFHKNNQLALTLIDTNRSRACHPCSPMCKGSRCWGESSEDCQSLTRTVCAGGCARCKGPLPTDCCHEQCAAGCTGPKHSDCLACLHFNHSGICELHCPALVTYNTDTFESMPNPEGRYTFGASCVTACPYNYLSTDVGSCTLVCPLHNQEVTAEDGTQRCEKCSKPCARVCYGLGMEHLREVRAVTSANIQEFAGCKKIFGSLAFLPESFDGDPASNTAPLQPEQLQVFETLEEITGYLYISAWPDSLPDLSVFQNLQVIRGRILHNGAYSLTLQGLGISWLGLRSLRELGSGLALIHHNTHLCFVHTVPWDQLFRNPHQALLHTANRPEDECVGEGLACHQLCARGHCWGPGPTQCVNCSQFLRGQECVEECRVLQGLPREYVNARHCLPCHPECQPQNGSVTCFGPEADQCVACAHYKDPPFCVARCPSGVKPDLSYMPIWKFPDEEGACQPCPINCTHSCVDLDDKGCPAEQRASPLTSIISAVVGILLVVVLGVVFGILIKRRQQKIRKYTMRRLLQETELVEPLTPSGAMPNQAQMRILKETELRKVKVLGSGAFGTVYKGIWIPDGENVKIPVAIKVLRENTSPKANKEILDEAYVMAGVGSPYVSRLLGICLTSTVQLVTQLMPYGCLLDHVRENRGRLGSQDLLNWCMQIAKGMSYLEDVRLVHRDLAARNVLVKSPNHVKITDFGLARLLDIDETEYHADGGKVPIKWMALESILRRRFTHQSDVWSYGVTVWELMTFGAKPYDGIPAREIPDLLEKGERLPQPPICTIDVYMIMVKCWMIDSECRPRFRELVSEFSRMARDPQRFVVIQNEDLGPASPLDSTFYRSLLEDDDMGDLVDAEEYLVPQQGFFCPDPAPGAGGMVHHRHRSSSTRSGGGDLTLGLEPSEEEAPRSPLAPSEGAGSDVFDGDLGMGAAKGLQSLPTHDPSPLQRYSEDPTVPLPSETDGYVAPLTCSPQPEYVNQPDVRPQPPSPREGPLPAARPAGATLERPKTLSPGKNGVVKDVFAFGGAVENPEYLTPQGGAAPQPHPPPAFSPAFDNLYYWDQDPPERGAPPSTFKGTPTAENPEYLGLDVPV
Assay: as above
Conditions: compound 0.5 µM; ATP 10 µM

Going from CSc1nc(-c2ccc(F)cc2)c(-c2ccnc(NC(C)c3ccccc3)c2)[nH]1 (centres undefined) to Nc1n[nH]c2nnc(-c3c(-c4ccccc4)nn4ccccc34)cc12, the residual activity rises from 99.2% to 105%.

First: O=C(NC(NC(=S)Nc1ccc(F)c([N+](=O)[O-])c1)C(Cl)(Cl)Cl)C(c1ccccc1)c1ccccc1 (centres undefined)
Second: Cc1cc2ncc(-c3ccccc3)nc2cc1C
The residual activity of the first is lower: 94.8% for the first, 97.4% for the second.

Target: PRKCZ (human) (UniProt Q05513)
Sequence (Q05513 whole entry, looked up): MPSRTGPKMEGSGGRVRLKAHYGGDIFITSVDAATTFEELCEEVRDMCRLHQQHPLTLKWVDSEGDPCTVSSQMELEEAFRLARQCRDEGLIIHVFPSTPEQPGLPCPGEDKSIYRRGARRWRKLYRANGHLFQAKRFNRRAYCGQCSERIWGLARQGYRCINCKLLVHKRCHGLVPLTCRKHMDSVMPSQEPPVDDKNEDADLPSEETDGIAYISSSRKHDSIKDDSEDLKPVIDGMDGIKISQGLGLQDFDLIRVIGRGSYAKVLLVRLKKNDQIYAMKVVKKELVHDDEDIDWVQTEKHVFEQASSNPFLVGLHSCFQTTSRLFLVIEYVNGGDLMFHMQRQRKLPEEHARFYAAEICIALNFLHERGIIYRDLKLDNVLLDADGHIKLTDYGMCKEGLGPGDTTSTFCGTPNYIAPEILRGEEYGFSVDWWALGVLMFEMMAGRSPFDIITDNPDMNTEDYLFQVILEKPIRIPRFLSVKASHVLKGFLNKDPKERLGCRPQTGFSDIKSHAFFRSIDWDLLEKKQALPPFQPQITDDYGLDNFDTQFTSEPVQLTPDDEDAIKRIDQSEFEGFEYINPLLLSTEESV
Assay: as above
Conditions: compound 0.5 µM; ATP 10 µM

Compared with CSc1nc(-c2ccc(F)cc2)c(-c2ccnc(NC(C)c3ccccc3)c2)[nH]1 (centres undefined), Nc1n[nH]c2nnc(-c3c(-c4ccccc4)nn4ccccc34)cc12 is lower in residual activity: 111% for the first, 83.9% for the second.

First: O=C(NC(NC(=S)Nc1ccc(F)c([N+](=O)[O-])c1)C(Cl)(Cl)Cl)C(c1ccccc1)c1ccccc1 (centres undefined)
Second: Cc1cc2ncc(-c3ccccc3)nc2cc1C
The residual activity of the first is higher: 98% for the first, 88.6% for the second.

Target: MATK (human) (UniProt P42679)
Assay: as above
Conditions: compound 0.5 µM; ATP 10 µM

Compared with CSc1nc(-c2ccc(F)cc2)c(-c2ccnc(NC(C)c3ccccc3)c2)[nH]1 (centres undefined), Nc1n[nH]c2nnc(-c3c(-c4ccccc4)nn4ccccc34)cc12 is higher in residual activity: 87% for the first, 95.6% for the second.

Compared with O=C(NC(NC(=S)Nc1ccc(F)c([N+](=O)[O-])c1)C(Cl)(Cl)Cl)C(c1ccccc1)c1ccccc1 (centres undefined), Cc1cc2ncc(-c3ccccc3)nc2cc1C is lower in residual activity: 96.5% for the first, 95.4% for the second.

Target: STK3 (human) (UniProt Q13188)
Assay: as above
Conditions: compound 0.5 µM; ATP 10 µM

First: CSc1nc(-c2ccc(F)cc2)c(-c2ccnc(NC(C)c3ccccc3)c2)[nH]1 (centres undefined)
Second: Nc1n[nH]c2nnc(-c3c(-c4ccccc4)nn4ccccc34)cc12
The residual activity of the first is lower: 88.8% for the first, 102% for the second.

First: O=C(NC(NC(=S)Nc1ccc(F)c([N+](=O)[O-])c1)C(Cl)(Cl)Cl)C(c1ccccc1)c1ccccc1 (centres undefined)
Second: Cc1cc2ncc(-c3ccccc3)nc2cc1C
The residual activity of the first is higher: 107% for the first, 98.9% for the second.

Target: PKN2 (human) (UniProt Q16513)
Assay: as above
Conditions: compound 0.5 µM; ATP 10 µM

First: CSc1nc(-c2ccc(F)cc2)c(-c2ccnc(NC(C)c3ccccc3)c2)[nH]1 (centres undefined)
Second: Nc1n[nH]c2nnc(-c3c(-c4ccccc4)nn4ccccc34)cc12
The residual activity of the first is lower: 76.1% for the first, 98.9% for the second.

Compared with O=C(NC(NC(=S)Nc1ccc(F)c([N+](=O)[O-])c1)C(Cl)(Cl)Cl)C(c1ccccc1)c1ccccc1 (centres undefined), Cc1cc2ncc(-c3ccccc3)nc2cc1C is higher in residual activity: 88.1% for the first, 104% for the second.

Target: HIPK2 (human) (UniProt Q9H2X6)
Sequence (Q9H2X6 whole entry, looked up): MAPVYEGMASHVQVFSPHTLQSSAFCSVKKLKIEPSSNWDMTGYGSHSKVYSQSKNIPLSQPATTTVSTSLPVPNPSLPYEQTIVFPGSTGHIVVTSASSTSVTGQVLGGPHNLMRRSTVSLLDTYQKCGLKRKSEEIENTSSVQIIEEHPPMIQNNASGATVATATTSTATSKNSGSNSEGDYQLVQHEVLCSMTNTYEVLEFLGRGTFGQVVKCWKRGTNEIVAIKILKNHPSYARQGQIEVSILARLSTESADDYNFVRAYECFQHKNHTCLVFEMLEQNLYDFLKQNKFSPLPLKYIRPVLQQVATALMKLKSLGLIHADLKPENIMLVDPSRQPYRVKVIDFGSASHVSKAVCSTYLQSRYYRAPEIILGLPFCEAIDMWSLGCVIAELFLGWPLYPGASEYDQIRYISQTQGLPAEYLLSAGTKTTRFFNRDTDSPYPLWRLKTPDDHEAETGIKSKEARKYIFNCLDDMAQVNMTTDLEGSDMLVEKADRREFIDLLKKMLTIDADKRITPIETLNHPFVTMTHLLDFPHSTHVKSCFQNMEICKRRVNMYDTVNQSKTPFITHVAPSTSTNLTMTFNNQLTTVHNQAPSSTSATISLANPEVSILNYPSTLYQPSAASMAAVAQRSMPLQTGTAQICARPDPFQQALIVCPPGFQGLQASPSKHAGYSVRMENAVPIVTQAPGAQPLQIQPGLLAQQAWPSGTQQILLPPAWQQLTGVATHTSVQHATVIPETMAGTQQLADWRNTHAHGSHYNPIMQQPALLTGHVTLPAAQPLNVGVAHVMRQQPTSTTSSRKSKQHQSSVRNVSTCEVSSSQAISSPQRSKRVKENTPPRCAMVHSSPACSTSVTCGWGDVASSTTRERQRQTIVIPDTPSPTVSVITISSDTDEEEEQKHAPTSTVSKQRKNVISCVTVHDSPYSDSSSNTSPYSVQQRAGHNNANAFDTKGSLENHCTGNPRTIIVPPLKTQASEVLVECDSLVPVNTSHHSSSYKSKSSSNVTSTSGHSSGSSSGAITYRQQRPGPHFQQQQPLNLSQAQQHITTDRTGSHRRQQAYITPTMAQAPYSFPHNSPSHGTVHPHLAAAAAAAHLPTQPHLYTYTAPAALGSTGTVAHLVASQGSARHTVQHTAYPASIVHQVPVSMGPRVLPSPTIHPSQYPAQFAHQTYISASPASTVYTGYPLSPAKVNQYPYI
Assay: as above
Conditions: compound 0.5 µM; ATP 10 µM

Compared with CSc1nc(-c2ccc(F)cc2)c(-c2ccnc(NC(C)c3ccccc3)c2)[nH]1 (centres undefined), Nc1n[nH]c2nnc(-c3c(-c4ccccc4)nn4ccccc34)cc12 is higher in residual activity: 99.9% for the first, 104% for the second.

First: O=C(NC(NC(=S)Nc1ccc(F)c([N+](=O)[O-])c1)C(Cl)(Cl)Cl)C(c1ccccc1)c1ccccc1 (centres undefined)
Second: Cc1cc2ncc(-c3ccccc3)nc2cc1C
The residual activity of the first is higher: 118% for the first, 97% for the second.
